Assay results as given in patent US20130184227A1, “Cytochrome P450 2C9 Inhibitors” (priority 2004, published 2013).

Test system: CYP2C9
Assay: in vitro
Settings: Sprague-Dawley, rat, microsomes
[1] = pH 7.4, % inhibition of CYP2C9 activity

O=c1cc(-c2ccccc2)oc2cc(O)c(O)c(O)c12 [Baicalein]
inhibition at 7.5 min, 2.5 μM [1]: 1.76%
inhibition at 7.5 min, 25 μM [1]: 5.06%

O=c1c(O[C@@H]2O[C@H](CO)[C@@H](O)[C@H](O)[C@H]2O)c(-c2ccc(O)c(O)c2)oc2cc(O)cc(O)c12 [isoquercitrin]
inhibition at 7.5 min, 1 μM [1]: 20.9%
inhibition at 7.5 min, 10 μM [1]: 27%
inhibition at 7.5 min, 100 μM [1]: 61.8%

COc1cc(O)c2c(=O)cc(-c3ccc(O)cc3)oc2c1 [Genkwanin]
inhibition at 7.5 min, 1 μM [1]: 30.9%
inhibition at 7.5 min, 10 μM [1]: 37.4%

CC1(C)CC[C@]2(C(=O)O)CC[C@]3(C)C(=CC[C@@H]4[C@@]5(C)CC[C@H](O)C(C)(C)[C@@H]5CC[C@]43C)[C@@H]2C1 [Oleanolic acid]
inhibition at 7.5 min, 1 μM (pH 7.4, % inhibition of CYP2C9 activity, test article 1 μM, tolbutamide 1 mM, rat liver microsomes): 16.8%
inhibition at 7.5 min, 10 μM (pH 7.4, % inhibition of CYP2C9 activity, test article 10 μM, tolbutamide 1 mM, rat liver microsomes): 42.4%
inhibition at 7.5 min, 100 μM (pH 7.4, % inhibition of CYP2C9 activity, test article 100 μM, tolbutamide 1 mM, rat liver microsomes): 41.1%

O=c1cc(-c2ccc(O)cc2)oc2cc(O)c([C@@H]3O[C@H](CO)[C@@H](O)[C@H](O)[C@H]3O)c(O)c12 [isovitexin]
inhibition at 7.5 min, 1 μM [1]: 35.6%
inhibition at 7.5 min, 10 μM [1]: 37.4%
inhibition at 7.5 min, 100 μM [1]: 45.4%

O=C(O)c1ccc(O)c(O)c1 [protocatechuic acid]
inhibition at 7.5 min, 1 μM [1]: 20.3%
inhibition at 7.5 min, 10 μM [1]: 16.2%

O=c1c(O)c(-c2cc(O)c(O)c(O)c2)oc2cc(O)cc(O)c12 [myricetin]
inhibition at 7.5 min, 1 μM [1]: -3.19%
inhibition at 7.5 min, 10 μM [1]: 10.6%
inhibition at 7.5 min, 100 μM [1]: 88.8%

O=c1cc(-c2ccccc2)oc2cc(O)cc(O)c12 [Chrysin]
inhibition at 7.5 min, 1 μM (pH 7.4): 6.86%
inhibition at 7.5 min, 10 μM (pH 7.4): 60.6%
inhibition at 7.5 min, 50 μM (pH 7.4): 75.1%

CC(C)[C@@H](C)/C=C/[C@@H](C)[C@H]1CC[C@H]2C3=CC=C4C[C@@H](O)CC[C@]4(C)[C@H]3CC[C@]12C [ergosterol]
inhibition at 7.5 min, 1 μM [1]: 1%
inhibition at 7.5 min, 10 μM [1]: 8.12%
inhibition at 7.5 min, 30 μM [1]: 3.57%

O=c1cc(-c2ccc(O)cc2)oc2cc(O)cc(O)c12 [apigenin]
inhibition at 7.5 min, 2.5 μM [1]: 21.7%
inhibition at 7.5 min, 25 μM [1]: 76.9%

O=c1c(-c2ccc(O)cc2)coc2cc(O)ccc12 [Daidzein]
inhibition at 7.5 min, 1 μM [1]: 1.35%
inhibition at 7.5 min, 10 μM [1]: 13.4%
inhibition at 7.5 min, 25 μM [1]: 15.7%

O=C1C[C@@H](c2ccc(O)c(O)c2)Oc2cc(O)cc(O)c21 [eriodictyol]
inhibition at 7.5 min, 1 μM [1]: 32.8%
inhibition at 7.5 min, 10 μM [1]: 28.6%
inhibition at 7.5 min, 100 μM [1]: 69.6%

O=c1cc(-c2ccc(O)c(O)c2)oc2cc(O)cc(O)c12 [luteolin]
inhibition at 7.5 min, 1 μM [1]: 20.1%
inhibition at 7.5 min, 10 μM [1]: 37.9%
inhibition at 7.5 min, 100 μM [1]: 93.2%

CC(Cc1ccc(O)c(O)c1)C(C)Cc1ccc(O)c(O)c1 (stereo not shown) [Nordihydroguaiaretic acid]
inhibition at 7.5 min, 1 μM [1]: -16.1%
inhibition at 7.5 min, 10 μM [1]: 9.76%
inhibition at 7.5 min, 100 μM [1]: 81.2%

C=CC(=C)CCC=C(C)C [β-Myrcene]
inhibition at 7.5 min, 1 μM [1]: 24.1%
inhibition at 7.5 min, 10 μM [1]: 16.6%
inhibition at 7.5 min, 100 μM [1]: 29.9%

COc1ccc(-c2coc3cc(O)ccc3c2=O)cc1 [Formononetin]
inhibition at 7.5 min, 1 μM [1]: 23.3%
inhibition at 7.5 min, 10 μM [1]: 30.6%
inhibition at 7.5 min, 50 μM [1]: 57.9%

COc1ccc([C@@H]2CC(=O)c3c(O)cc(O[C@@H]4O[C@H](CO)[C@@H](O)[C@H](O)[C@H]4O[C@@H]4O[C@@H](C)[C@H](O)[C@@H](O)[C@H]4O)cc3O2)cc1 [Poncirin]
inhibition at 7.5 min, 1 μM [1]: 7.76%
inhibition at 7.5 min, 10 μM [1]: 16.3%
inhibition at 7.5 min, 100 μM [1]: 15%

COc1ccc(-c2cc(=O)c3c(O)cc(O[C@@H]4O[C@H](CO[C@@H]5O[C@@H](C)[C@H](O)[C@@H](O)[C@H]5O)[C@@H](O)[C@H](O)[C@H]4O)cc3o2)cc1O [Diosmin]
inhibition at 7.5 min, 1 μM [1]: 1.51%
inhibition at 7.5 min, 10 μM [1]: 4.7%

CCCCCCCCCCCC1=C(O)C(=O)C=C(O)C1=O [Embelin]
inhibition at 7.5 min, 1 μM [1]: 24.7%
inhibition at 7.5 min, 10 μM [1]: 11.2%
inhibition at 7.5 min, 50 μM [1]: 18%

O=C(CCc1ccc(O)cc1)c1c(O)cc(O)cc1O [Phloretin]
inhibition at 7.5 min, 1 μM [1]: 23.8%
inhibition at 7.5 min, 10 μM [1]: 34.4%
inhibition at 7.5 min, 100 μM [1]: 95.1%
